Experiments:
[1] = tested on: TNFα induced systemic inflammatory response syndrome (SIRS); assay: TNFα induced C57BL/6 mouse systemic inflammatory response syndrome (SIRS) model (hypothermic shock); type: in vivo; conditions: mTNFα 5 μg/mouse tail vein, drug by gavage 15 min before modeling
Method: TNFα Induced C57BL/6 Mouse Systemic Inflammatory Response Syndrome (SIRS) Model
Source, stirp and strain: C57BL/6 pure mouse, female, 18-20 g, purchased from Shanghai Lingchang Biotechnology Co., Ltd., license No. SCXK (Shanghai) 2013-0018. The animals were bred in the SPF animal room of Building No. 2 of the Shanghai institute of Materia Medica, and the experimental animal use license number is SYXK (Shanghai) 2013-0049. The animals were bred for at least one week before use at 22±1° C. with a humidity of 55±5% and 12 h light and dark cycle. Both feed and water are freely ingested by the animals after disinfection. All experiments were carried out in strict accordance with the relevant regulations on experimental animals.
2. Test Reagents and Materials: • 1) Recombinant Mouse mTNFα was purchased from Shanghai JIN′AN Biological Company. • 2) Experimental materials: 1.5 mL centrifuge tubes were purchased from Axygen Company, 15 mL and 50 mL centrifuge tubes were purchased from Corning Company; commonly used surgical instruments (ophthalmic scissors, large tweezers, small tweezers, tissue scissors) and 1 mL, 2 mL, and 10 mL disposable plastic dispensers were purchased from Sinopharm Chemical Reagent Co., Ltd.; pipettes of various specifications were purchased from Eppendorf Company; tips of various specifications were purchased from Axygen and Sartoruris Company. • 3) Experimental equipments: the syringe adopts omnican insulin syringes, a disposable syringe adopts sterile insulin syringe with a product number of 9161635, and an outer diameter and length of the needle tube of 0.30*8 mm; the mouse tail vein syringe is model YLS-Q9G purchased from Jinan Yyan Technology Development Co., Ltd.; Laboratory animal rectal temperature measuring instrument was model ALC-ET06 purchased from Shanghai Alcott Biotechnology Co., Ltd.
3. Reagents and Compound Preparation Methods: • 1) Recombinant Mouse mTNFα: mTNFα lyophilized powder was dissolved in PBS to prepare a stock solution of 200 μg/mL, and stored in a refrigerator at −20° C. after sub-packaging. The stock solution was put in a refrigerator at 4° C. overnight to reach dissolution equilibrium when in use. […] The drug concentration was determined comprehensively according to the results of in vitro experiments and the pharmacokinetic properties.
4. […] Therefore, the model with tail vein injection of TNFα was selected as the classic model for an animal level screen of RIP1 inhibitor. • 2) Experimental process: • a) The experimental animals were randomly grouped according to their body weight one day in advance, and there are 8 animals in each group. • b) On the day of the experiment, mTNFα and sterile PBS were diluted according to the above method, sucked into an insulin syringe at 125 μl/piece, that is, 5 μg/mice. • c) The drug was administered 15 min before modeling by gavage at 0.2 mL/mouse. • d) 15 min after administration, the modeling was started by injection of PBS or mTNFα into the tail vein, the injection was conducted according to the above dose. • e) After modeling, the rectal temperature was measured every 1 h and the survival rate was measured.
5. Testing Indicators: • 1) Animal body temperature: The rectal temperature was measured every 1 h after modeling. […]

[2] = Study on oral pharmacokinetics in rats; type: in vivo; conditions: rat, plasma, male SD rats, 3 mg/kg by gavage, average; for AUC(0-inf): extrapolated to infinity, read-out: AUCINF_obs; for MRT inf: read-out: Average residence time MRTINF_obs; for half-life: read-out: Half life T1/2 (converted); for Cmax: read-out: Peak plasma concentration Cmax
Method: Study on Oral Pharmacokinetics in Rats • 1. […] The pharmacokinetic behaviors of the compounds of the present invention in rats were studied, and the pharmacokinetic properties of the compounds were evaluated. • 2. The test animals are healthy adult male SD rats, 3 in each group. • 3. […] Liquid chromatography tandem mass spectrometry (LC-MS/MS) was used to determine the plasma concentration of test compounds in rat after intragastrical administration of different compounds.

With `CN1C(=O)[C@@H](NC(=O)c2n[nH]c(Cc3ccccc3)n2)COc2ccccc21` [GSK2982772, reference compound] the Survival rate [1] was 100%.

Compound `Cc1c(C#Cc2cnn(C)c2)sc2c1SC[C@H](NC(=O)c1nnc(Cc3ccccc3)[nH]1)C(=O)N2C` [ZB-R-39] has an AUC(0-t) [2] of 1680 ng·h/mL, an AUC(0-inf) [2] of 1700 ng·h/mL and an MRT inf [2] of 4.07 h. It also gave a half-life [2] of 3.46 h and a Cmax [2] of 525 ng/mL.

In the case of `CN1C(=O)[C@@H](NC(=O)c2n[nH]c(Cc3ccccc3)n2)COc2ccc(C#Cc3ccccn3)cc21` [ZB-R-50], the AUC(0-t) [2] is reported as 3110 ng·h/mL, the AUC(0-inf) [2] is reported as 3120 ng·h/mL and the MRT inf [2] is reported as 2.2 h. It also gave a half-life [2] of 1.56 h, a Cmax [2] of 1450 ng/mL and a Survival rate [1] of 100%.

`CN1C(=O)[C@@H](NC(=O)c2n[nH]c(Cc3ccccc3)n2)COc2ccc(C#Cc3cccnc3)cc21` [ZB-R-51] gave an AUC(0-t) [2] of 4210 ng·h/mL, an AUC(0-inf) [2] of 4290 ng·h/mL and an MRT inf [2] of 2.8 h. For the same compound, the half-life [2] was 1.79 h and the Cmax [2] was 1360 ng/mL.

With `CN1C(=O)[C@@H](NC(=O)c2n[nH]c(Cc3ccccc3)n2)COc2ccc(C#Cc3ccncc3)cc21` [ZB-R-52] the AUC(0-t) [2] was 1560 ng·h/mL, the AUC(0-inf) [2] was 1560 ng·h/mL and the MRT inf [2] was 1.61 h. For the same compound, the half-life [2] was 0.81 h and the Cmax [2] was 755 ng/mL.

Compound `CN1C(=O)[C@@H](NC(=O)c2n[nH]c(Cc3ccccc3)n2)COc2ccc(C#Cc3cnn(C)c3)cc21` [ZB-R-53] has an AUC(0-t) [2] of 4500 ng·h/mL, an AUC(0-inf) [2] of 4650 ng·h/mL and an MRT inf [2] of 2.41 h. For the same compound, the half-life [2] was 1.54 h, the Cmax [2] was 1760 ng/mL and the Survival rate [1] was 100%.

Compound `CN1C(=O)[C@@H](NC(=O)c2n[nH]c(Cc3ccccc3)n2)COc2ccc(C#CC3CCOCC3)cc21` [ZB-R-54] has an AUC(0-t) [2] of 1240 ng·h/mL, an AUC(0-inf) [2] of 1250 ng·h/mL and an MRT inf [2] of 2 h. The half-life [2] was 1.14 h, the Cmax [2] was 667 ng/mL and the Survival rate [1] was 100%.

For `CN1C(=O)[C@@H](NC(=O)c2n[nH]c(Cc3ccccc3)n2)COc2ccc(C#CC3CC3)cc21` [ZB-R-55], the AUC(0-t) [2] was 25700 ng·h/mL, the AUC(0-inf) [2] was 26100 ng·h/mL and the MRT inf [2] was 7.23 h. The half-life [2] was 3.71 h, the Cmax [2] was 2900 ng/mL and the Survival rate [1] was 100%.
